From patent publication US20230167414A1, “METHODS FOR ISOLATING AND CULTURING TUMOR CELLS” (Georgetown University, priority 2020, published 2023)

Tests used:
[1] = tested on: airway epithelial cells; settings: cited from earlier work
[2] = tested on: the cells; test: Culture conditions described herein with upstream/downstream ROCK pathway inhibitor in place of a ROCK inhibitor; assay type: cell-based; settings: used in the culture conditions in place of a ROCK inhibitor
From the text: As used herein, inhibiting ROCK can mean to reduce the activity, function, or expression of at least one of ROCK1 or ROCK2. […] In general, ROCK phosphorylates LEVI kinase and myosin light chain (MLC) phosphatase after being activated through binding of GTP-bound Rho. One embodiment of the present invention thus involves blocking the upstream pathway of ROCK1 and/or ROCK2, for example GTP-bound Rho, such that ROCK1 and/or ROCK2 is not activated or its activity is reduced over untreated cells. Other upstream effectors include, but are not limited to, integrins, growth factor receptors, including but not limited to, TGF-beta and EGFR, cadherins, G protein coupled receptors and the like. Another embodiment of the present invention thus involves blocking the activity, function, or expression of downstream effector molecules of activated ROCK1 and/or ROCK2 such that ROCK1 and/or ROCK2 cannot propagate any signal or can only propagate a reduced signal over untreated cells. Downstream effectors include, but are not limited to, myosin phosphatase-targeting protein (MYPT), vimentin, LIMK, myosin light chain kinase, NHE1, cofilin, Myosin II and the like.

| Compound | effect of inhibition on airway epithelial cells [1] | effect on cells (differentiation / proliferation in vitro) [2] |
| --- | --- | --- |
| C[C@@H](N)[C@H]1CC[C@H](C(=O)Nc2ccncc2)CC1 [Y-27632] | induces membrane ruffling, loss of actin stress fibers and apoptosis |  |
| C3 transferase |  | allow the cells to bypass differentiation and allow proliferation in vitro |
| O=S(=O)(c1cccc2cnccc12)N1CCCNCC1 [HA 1077, fasudil] | induces membrane ruffling, loss of actin stress fibers and apoptosis |  |
| Cc1ccc2c(c1)C(=O)C1(O)CCN(c3ccccc3)C1=N2 (stereo not shown) [blebbistatin] |  | allow the cells to bypass differentiation and allow proliferation in vitro |
